In patent US20230416248A1, “COMPOUNDS AND USES THEREOF” (Foghorn Therapeutics Inc., priority 2020, published 2023):
Like-named read-outs stand apart in the source and are kept apart here.

Tests used:
[1] = molecular target: T1, BRM (Homo sapiens, UniProt P51531); test: ATPase catalytic activity of BRM, ADP-Glo in vitro biochemical assay; details: for IC50: 30 nM BRM, 400 μM ATP; for Ratio* (BRG1 IC50 (μM) divided by BRM IC50 (μM)): selectivity ratio BRG1 IC50 / BRM IC50
T1 construct: made in house; host or cells: High Five insect cells
In short: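 ADP-Glo luminescence, after depletion of leftover ATP and conversion of ADP, reported the activity. The 1 h room-temperature reaction held 400 μM ATP, 20 nM salmon sperm DNA and 30 nM BRM in 20 mM Tris pH 8, 20 mM MgCl2, 50 mM NaCl, 0.1% Tween-20, 1 mM DTT.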

[2] = molecular target: T2, BRG-1 (Homo sapiens, UniProt P51532); test: ATPase catalytic activity of BRG-1, ADP-Glo in vitro biochemical assay; details: 30 nM BRG-1, 400 μM ATP, read-out: BRG1 IC50
T2 construct: made in house; host or cells: High Five insect cells
In short: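 ADP produced by BRG-1 was quantified by luciferase luminescence. A 60 min room-temperature ADP-to-ATP conversion followed a 40 min ATP-depletion step.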

[3] = ATPase catalytic activity, ADP-Glo

T1 sequence (P51531 whole entry): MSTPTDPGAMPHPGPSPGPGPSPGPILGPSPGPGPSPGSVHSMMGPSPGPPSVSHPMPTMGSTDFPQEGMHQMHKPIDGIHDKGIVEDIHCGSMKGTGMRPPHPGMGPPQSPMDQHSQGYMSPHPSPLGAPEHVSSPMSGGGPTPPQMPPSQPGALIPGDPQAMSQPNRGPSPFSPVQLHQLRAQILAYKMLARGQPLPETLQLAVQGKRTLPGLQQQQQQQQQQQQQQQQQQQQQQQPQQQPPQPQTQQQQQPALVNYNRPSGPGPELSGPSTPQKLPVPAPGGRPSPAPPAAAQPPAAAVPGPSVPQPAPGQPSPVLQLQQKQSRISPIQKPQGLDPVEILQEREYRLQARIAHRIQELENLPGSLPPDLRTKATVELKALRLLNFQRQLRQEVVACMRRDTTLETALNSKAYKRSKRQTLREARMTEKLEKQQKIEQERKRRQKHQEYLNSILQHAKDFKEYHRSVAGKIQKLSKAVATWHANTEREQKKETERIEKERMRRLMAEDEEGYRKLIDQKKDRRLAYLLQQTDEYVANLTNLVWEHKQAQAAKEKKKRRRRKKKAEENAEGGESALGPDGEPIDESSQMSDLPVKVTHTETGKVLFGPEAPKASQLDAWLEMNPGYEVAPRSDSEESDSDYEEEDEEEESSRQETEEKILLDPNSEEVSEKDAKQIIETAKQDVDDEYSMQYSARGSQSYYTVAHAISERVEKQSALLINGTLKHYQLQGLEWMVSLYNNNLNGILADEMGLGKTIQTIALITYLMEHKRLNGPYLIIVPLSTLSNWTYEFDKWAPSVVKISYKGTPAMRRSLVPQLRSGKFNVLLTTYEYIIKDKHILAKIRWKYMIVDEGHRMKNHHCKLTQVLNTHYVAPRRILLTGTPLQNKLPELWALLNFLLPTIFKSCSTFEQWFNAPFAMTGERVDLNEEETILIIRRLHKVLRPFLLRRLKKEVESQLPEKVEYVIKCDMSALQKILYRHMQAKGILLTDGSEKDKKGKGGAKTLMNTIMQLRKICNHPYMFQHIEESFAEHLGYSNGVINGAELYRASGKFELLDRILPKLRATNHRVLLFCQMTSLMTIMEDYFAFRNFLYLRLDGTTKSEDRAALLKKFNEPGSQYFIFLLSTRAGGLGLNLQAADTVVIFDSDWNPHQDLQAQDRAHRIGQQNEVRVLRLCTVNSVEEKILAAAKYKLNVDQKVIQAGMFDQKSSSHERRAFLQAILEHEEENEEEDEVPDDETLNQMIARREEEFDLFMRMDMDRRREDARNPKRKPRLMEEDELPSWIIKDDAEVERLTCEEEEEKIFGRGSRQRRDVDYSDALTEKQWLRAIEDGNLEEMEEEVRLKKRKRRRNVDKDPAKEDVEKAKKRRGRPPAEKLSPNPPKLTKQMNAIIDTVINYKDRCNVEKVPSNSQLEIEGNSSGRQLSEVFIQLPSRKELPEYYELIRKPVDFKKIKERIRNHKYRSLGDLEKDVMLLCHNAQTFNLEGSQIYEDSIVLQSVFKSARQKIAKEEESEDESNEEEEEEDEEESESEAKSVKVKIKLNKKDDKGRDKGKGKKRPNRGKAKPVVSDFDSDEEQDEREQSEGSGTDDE
T2 sequence (P51532 whole entry): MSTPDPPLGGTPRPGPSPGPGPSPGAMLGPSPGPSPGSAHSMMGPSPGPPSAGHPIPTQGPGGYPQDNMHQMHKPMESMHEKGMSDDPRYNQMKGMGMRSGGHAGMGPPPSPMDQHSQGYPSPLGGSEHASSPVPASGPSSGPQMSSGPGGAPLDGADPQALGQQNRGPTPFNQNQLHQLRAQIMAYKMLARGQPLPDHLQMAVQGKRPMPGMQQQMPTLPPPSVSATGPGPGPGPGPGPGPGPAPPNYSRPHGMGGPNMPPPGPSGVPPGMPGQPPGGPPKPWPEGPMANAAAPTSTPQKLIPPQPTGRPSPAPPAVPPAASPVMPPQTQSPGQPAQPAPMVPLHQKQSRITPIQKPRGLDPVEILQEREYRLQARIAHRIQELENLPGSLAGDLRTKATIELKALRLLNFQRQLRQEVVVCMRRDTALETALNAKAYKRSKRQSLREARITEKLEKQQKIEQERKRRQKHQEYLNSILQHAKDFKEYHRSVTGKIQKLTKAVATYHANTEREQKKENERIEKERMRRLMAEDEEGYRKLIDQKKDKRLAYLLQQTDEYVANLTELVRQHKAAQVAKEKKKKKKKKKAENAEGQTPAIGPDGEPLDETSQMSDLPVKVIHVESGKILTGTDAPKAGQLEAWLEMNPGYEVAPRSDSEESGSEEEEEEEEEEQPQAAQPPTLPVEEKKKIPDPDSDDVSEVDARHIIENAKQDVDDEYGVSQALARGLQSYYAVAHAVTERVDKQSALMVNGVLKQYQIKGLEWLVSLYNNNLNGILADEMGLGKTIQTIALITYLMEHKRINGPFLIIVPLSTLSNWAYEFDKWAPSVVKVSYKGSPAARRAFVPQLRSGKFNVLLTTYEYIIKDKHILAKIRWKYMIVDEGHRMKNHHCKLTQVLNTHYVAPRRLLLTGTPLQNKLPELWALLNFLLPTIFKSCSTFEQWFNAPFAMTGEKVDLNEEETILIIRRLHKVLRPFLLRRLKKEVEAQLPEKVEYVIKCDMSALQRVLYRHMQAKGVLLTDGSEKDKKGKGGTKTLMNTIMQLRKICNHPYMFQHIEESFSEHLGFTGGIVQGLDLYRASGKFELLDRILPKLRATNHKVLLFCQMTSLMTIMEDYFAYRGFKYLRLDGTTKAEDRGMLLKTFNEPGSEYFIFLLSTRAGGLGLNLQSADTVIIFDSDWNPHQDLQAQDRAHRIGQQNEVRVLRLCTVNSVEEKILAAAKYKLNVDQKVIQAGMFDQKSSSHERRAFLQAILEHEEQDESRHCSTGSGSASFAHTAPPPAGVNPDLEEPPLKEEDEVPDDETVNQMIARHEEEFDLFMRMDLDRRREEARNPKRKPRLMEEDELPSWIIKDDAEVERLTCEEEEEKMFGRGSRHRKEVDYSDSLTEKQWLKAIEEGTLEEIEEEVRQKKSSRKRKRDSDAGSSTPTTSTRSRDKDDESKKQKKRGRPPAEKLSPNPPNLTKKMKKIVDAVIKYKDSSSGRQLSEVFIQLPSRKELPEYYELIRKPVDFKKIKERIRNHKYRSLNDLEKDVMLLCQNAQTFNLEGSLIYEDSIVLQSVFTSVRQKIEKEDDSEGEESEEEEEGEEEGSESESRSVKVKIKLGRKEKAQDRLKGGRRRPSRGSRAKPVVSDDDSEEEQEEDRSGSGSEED

Row | Compound | IC50 ([1]; ADP-Glo ATPase assay) | Ratio* ([1]; ratio BRG1 IC50 / BRM IC50) | IC50 ([2]; ADP-Glo ATPase assay) | IC50 [1, 3] | Ratio* ([1]; ratio of BRG1 IC50 to BRM IC50) | IC50 [2, 3] | Ratio* (BRG1 IC50 (μM) divided by BRM IC50 (μM)) [1]
1 | O=C(NCc1cc2nc(-c3cncc(C4CC4)n3)ccc2cn1)c1cnc2c(c1)S(=O)(=O)CCCC2(F)F [Compound 434] |  |  |  | 118 nM | 13.52 | 1590 nM | 
2 | CO[C@H]1CCS(=O)(=O)c2cc(C(=O)NCc3cc4nc(-c5cccc(N6C[C@@H](C)O[C@@H](C)C6)n5)ccc4cn3)ccc2C1 [Compound 444] |  |  |  | 13 nM | 2.12 | 27.5 nM | 
3 | O=C(NCc1cc2nc(-c3cccc4c3CC3COCCN43)ccc2cn1)c1ccc2c(c1)S(=O)(=O)CCOC2 (stereo not drawn) [Compound 421] |  |  |  | 56.8 nM | 14.57 | 828 nM | 
4 | COCCn1ncc2c1CCCN2c1ccc2cnc(CNC(=O)c3ccc4c(c3)S(=O)(=O)CCOC4)cc2n1 [Compound 400] |  |  |  | 20.4 nM | 23.51 | 478 nM | 
5 | O=C(NCc1cc2nc(-c3ccnc([C@H]4CC4(F)F)n3)ccc2cn1)c1ccc2c(c1)S(=O)(=O)CCOC2 [Compound 217] | 61.2 nM |  | 965 nM |  |  |  | 15.77
6 | O=C(NCc1cc2nc(-c3cccc(C4(F)CC(F)(F)C4)n3)ccc2cn1)c1ccc2c(c1)S(=O)(=O)CCOC2 [Compound 170] | 109 nM |  | 689 nM |  |  |  | 6.33
7 | C[C@@H]1CN(c2cccc(-c3ccc4cnc(CNC(=O)c5cc(F)c6c(c5)S(=O)(=O)CCCO6)cc4n3)n2)C[C@H](C)O1 [Compound 37] | 8.6 nM |  | 85 nM |  |  |  | 9.89
8 | CC1CN(c2cccc(-c3ccc4cnc(CNC(=O)c5ccc6c(c5)S(=O)(=O)C(C)COC6C)cc4n3)n2)CC(C)O1 (stereo not drawn) [Compound 540] |  |  |  | 30.7 nM | 20.63 | 632 nM | 
9 | CC(C)(F)c1cccc(-c2ccc3cnc(CNC(=O)c4ccc5c(c4)S(=O)(=O)CCOC5)cc3n2)n1 [Compound 280] | 212 nM |  | 2170 nM |  |  |  | 10.26
10 | CCc1cc(C(=O)NCc2cc3nc(-c4cccc(N5C[C@@H](C)O[C@@H](C)C5)n4)ccc3cn2)cc2c1COCCS2(=O)=O [Compound 59] | 73 nM |  | 780 nM |  |  |  | 10.68
11 | C[C@@H]1CN(c2cccc(-c3ccc4cnc(CNC(=O)c5ccc6c(c5)S(=O)(=O)CC[C@H](C)O6)cc4n3)n2)C[C@H](C)O1 [Compound 418] |  |  |  | 13.6 nM | 14.19 | 193 nM | 
12 | O=C(NCc1cc2nc(N3CCCc4cc(F)c(OCC5COC5)cc43)ccc2cn1)c1ccc2c(c1)S(=O)(=O)CCOC2 [Compound 726] | 24.7 nM | 11.83 | 292 nM |  |  |  | 
13 | COC[C@@H](C)N(C)c1cccc(-c2ccc3cnc(CNC(=O)c4ccc5c(c4)S(=O)(=O)CCOC5)cc3n2)n1 [Compound 72] | 224 nM |  | 1230 nM |  |  |  | 5.48
14 | CO[C@H]1CCN(c2cccc(-c3ccc4cnc(CNC(=O)c5ccc6c(c5)S(=O)(=O)CCOC6)cc4n3)n2)C[C@@H]1C [Compound 352] |  |  |  | 60.2 nM | 8.02 | 483 nM | 
15 | O=C(NCc1cc2nc(-c3cccc([C@H]4CC4(F)F)c3)ccc2cn1)c1ccc2c(c1)S(=O)(=O)CCOC2 [Compound 252] | 75.3 nM |  | 1380 nM |  |  |  | 18.31
16 | O=C(NCc1cc2nc(-c3cncc(C4CC4)n3)ccc2cn1)c1cc(F)c2c(c1)S(=O)(=O)CCOC2 [Compound 287] | 24.2 nM |  | 594 nM |  |  |  | 24.53
17 | C[C@@H]1CN(c2cccc(-c3ccc4cnc(CNC(=O)c5ccc6c(c5)S(=O)(=O)[C@H](C)C6)cc4n3)n2)C[C@H](C)O1 [Compound 502] |  |  |  | 8 nM | 14.99 | 120 nM | 
18 | O=C(NCc1cc2nc(-c3ccc4ccn(CC(F)F)c4n3)ccc2cn1)c1ccc2c(c1)S(=O)(=O)CCOC2 [Compound 140] | 35.2 nM |  | 243 nM |  |  |  | 6.92
19 | O=C(NCc1cc2nc(-c3cccc4c3OCC[C@H]4OC3COC3)ccc2cn1)c1ccc2c(c1)S(=O)(=O)CCOC2 [Compound 409] |  |  |  | 16.6 nM | 8.58 | 143 nM | 
20 | COC1(CN(C)c2cccc(-c3ccc4cnc(CNC(=O)c5ccc6c(c5)S(=O)(=O)CCOC6)cc4n3)n2)CC1 [Compound 323] |  |  |  | 17.1 nM | 13.46 | 230 nM | 
21 | C[C@@H]1CN(c2cccc(-c3ccc4cnc(CNC(=O)c5ccc(COC6CC6)c(S(C)(=O)=O)c5)cc4n3)n2)C[C@H](C)O1 [Compound 578] |  |  |  | 27.7 nM | 19.00 | 525 nM | 
22 | C[C@@H]1CN(c2cccc(-c3cnc4cnc(CNC(=O)c5ccc6c(c5)S(=O)(=O)CCOC6)cc4n3)c2)C[C@H](C)O1 [Compound 141] | 13 nM |  | 169 nM |  |  |  | 12.97
23 | Cc1cc2c(-c3ccc4cnc(CNC(=O)c5ccc6c(c5)S(=O)(=O)CCOC6)cc4n3)ccnc2n1C [Compound 146] | 15.3 nM |  | 197 nM |  |  |  | 12.92
24 | O=C(NCc1cc2nc(-c3cccc(OCC4CC(F)(F)C4)n3)ccc2cn1)c1ccc2c(c1)S(=O)(=O)CCOC2 [Compound 390] |  |  |  | 60.7 nM | 17.24 | 1050 nM | 

More lines, now with the values ahead:

Row | IC50 ([1]; ADP-Glo ATPase assay) | Ratio* ([1]; ratio BRG1 IC50 / BRM IC50) | IC50 ([2]; ADP-Glo ATPase assay) | IC50 [1, 3] | Ratio* ([1]; ratio of BRG1 IC50 to BRM IC50) | IC50 [2, 3] | Ratio* (BRG1 IC50 (μM) divided by BRM IC50 (μM)) [1] | Compound
25 | 27.5 nM | 38.76 | 1060 nM |  |  |  |  | O=C(NCc1cc2nc(N3CCOc4ccc(C(F)CF)nc43)ccc2cn1)c1ccc2c(c1)S(=O)(=O)CCOC2 (stereo not drawn) [Compound 838]
26 | 4.5 nM | 6.27 | 27.9 nM |  |  |  |  | O=C(NCc1cc2nc(N3CCCc4ccc(OCC5(F)COC5)cc43)ccc2cn1)c1ccc2c(c1)S(=O)(=O)CCOC2 [Compound 745]
27 | 290 nM | 7.16 | 2080 nM |  |  |  |  | Cc1nc(C)c2c(n1)N(c1ccc3cnc(CNC(=O)c4ccc5c(c4)S(=O)(=O)CCOC5)cc3n1)CCC2 [Compound 841]
28 |  |  |  | 7.5 nM | 16.72 | 125 nM |  | O=C(NCc1cc2nc(N3CCOc4ccc(C5CC5)cc43)ccc2cn1)c1ccc2c(c1)S(=O)(=O)CCOC2 [Compound 606]
29 |  |  |  | 28.6 nM | 7.45 | 213 nM |  | CC1CCN(c2ccc3cnc(CNC(=O)c4ccc5c(c4)S(=O)(=O)CCOC5)cc3n2)c2ncccc21 (stereo not drawn) [Compound 504]
30 |  |  |  | 13.9 nM | 10.20 | 142 nM |  | COCCc1cnc2c(c1)CCCN2c1ccc2cnc(CNC(=O)c3ccc4c(c3)S(=O)(=O)CCOC4)cc2n1 [Compound 510]
31 | 6.9 nM |  | 49.6 nM |  |  |  | 7.16 | C[C@H]1CN(c2cccc(-c3ccc4cnc(CNC(=O)c5ccc6c(c5)S(=O)(=O)CCOC6)cc4n3)n2)CCO1 [Compound 223]
32 | 12.5 nM | 12.13 | 152 nM |  |  |  |  | O=C(NCc1cc2nc(N3CCOc4cc(C5CC5)ccc43)ccc2nn1)c1ccc2c(c1)S(=O)(=O)CCOC2 [Compound 775]
33 |  |  |  | 24.2 nM | 11.06 | 268 nM |  | O=C(NCc1cc2nc(N3CCCc4cc(N5CCC5)cnc43)ccc2cn1)c1ccc2c(c1)S(=O)(=O)CCOC2 [Compound 666]
34 |  |  |  | 109 nM | 17.41 | 1890 nM |  | O=C(NCc1cc2nc(N3CCOc4ccc(C(F)(F)F)nc43)ccc2cn1)c1ccc2c(c1)S(=O)(=O)CCOC2 [Compound 583]
35 | 36.2 nM | 63.48 | 2300 nM |  |  |  |  | O=C(NCc1cc2nc(N3CCOc4cc(F)c(C5CC5)nc43)ccc2cn1)c1ccc2c(c1)S(=O)(=O)CCOC2 [Compound 751]
36 |  |  |  | 28.9 nM | 14.25 | 412 nM |  | O=C(NCc1cc2nc(N3CCCc4cc(Cl)cnc43)ccc2cn1)c1ccc2c(c1)S(=O)(=O)CCOC2 [Compound 588]
